# Test results published in ChEMBL document CHEMBL5325512, “Sub-stoichiometric Modulation of Viral Targets-Potent Antiviral Agents That Exploit Target Vulnerability” (ACS Med Chem Lett, 2023).
# Tests used:
# [1] = tested on: Human immunodeficiency virus 1; assay: Antiviral activity against HIV 1 harbouring V370A mutant; assay type: functional, organism-based
# [2] = tested on: Human immunodeficiency virus 1; assay: Antiviral activity against HIV 1 harbouring V362I/V370 mutant; assay type: functional, organism-based
# [3] = tested on: Human immunodeficiency virus 1; assay: Antiviral activity against HIV 1 harbouring deltaV370 mutant; assay type: functional, organism-based
# [4] = tested on: Human immunodeficiency virus 1; assay: Antiviral activity against HIV1 harbouring T332S/V362I/prR41G mutant; assay type: functional, organism-based
# [5] = molecular target: Human immunodeficiency virus type 1 Gag protein (Human immunodeficiency virus 1) (UniProt Q77YG1); assay: Binding affinity to HIV1 wild type Gag assessed as dissociation half life
# [6] = tested on: Human immunodeficiency virus 1; assay: Binding affinity to HIV1 Gag V370A/deltaT371 mutant assessed as dissociation half life
# [7] = tested on: Human immunodeficiency virus 1; assay: Binding affinity to HIV1 Gag deltaV370A mutant assessed as dissociation half life
# [8] = tested on: Gag-Pol polyprotein (Human immunodeficiency virus type 1 group M subtype B (isolate HXB2)(HIV-1)), P04585 [V362I]; assay: Binding affinity to HIV1 Gag V362I mutant assessed as dissociation half life; settings: Human immunodeficiency virus 1
# [9] = tested on: Gag-Pol polyprotein (Human immunodeficiency virus type 1 group M subtype B (isolate HXB2)(HIV-1)), P04585 [V370A]; assay: Binding affinity to HIV1 Gag V370A mutant assessed as dissociation half life; settings: Human immunodeficiency virus 1
# [10] = tested on: Human immunodeficiency virus 1; assay: Binding affinity to HIV1 Gag V362I/V370A mutant assessed as dissociation half life
# [11] = tested on: Gag-Pol polyprotein (Human immunodeficiency virus type 1 group M subtype B (isolate HXB2)(HIV-1)), P04585 [A364V]; assay: Binding affinity to HIV1 Gag A364V mutant assessed as dissociation half life; settings: Human immunodeficiency virus 1
# [12] = tested on: Human immunodeficiency virus 1; assay: Antiviral activity against wild type HIV 1; assay type: functional, organism-based
# [13] = tested on: Human immunodeficiency virus 1; assay: Antiviral activity against HIV 1 harbouring A362T/V362I/V370 mutant; assay type: functional, organism-based
# [14] = tested on: Human immunodeficiency virus 1; assay: Antiviral activity against HIV 1 harbouring R361K/V362I/L363M mutant; assay type: functional, organism-based
# [15] = tested on: Human immunodeficiency virus 1; assay: Antiviral activity against HIV 1 harbouring A364V mutant; assay type: functional, organism-based
# [16] = Selectivity ratio of EC50 for antiviral activity against HIV1 harbouring V362I/V370A mutant to EC50 for antiviral activity against wild type HIV1; assay type: functional, Human immunodeficiency virus 1
# [17] = Selectivity ratio of EC50 for antiviral activity against HIV1 harbouring V370A mutant to EC50 for antiviral activity against wild type HIV1; assay type: functional, Human immunodeficiency virus 1
# [18] = Selectivity ratio of EC50 for antiviral activity against HIV1 harbouring deltaV370A mutant to EC50 for antiviral activity against wild type HIV1; assay type: functional, Human immunodeficiency virus 1
# [19] = Selectivity ratio of EC50 for antiviral activity against HIV1 harbouring T332S/V362I/prR41G mutant to EC50 for antiviral activity wild type HIV1; assay type: functional, Human immunodeficiency virus 1
# [20] = Selectivity ratio of EC50 for antiviral activity against HIV1 harbouring A362T/V362I/V370A mutant to EC50 for antiviral activity wild type HIV1; assay type: functional, Human immunodeficiency virus 1
# [21] = Selectivity ratio of EC50 for antiviral activity against HIV1 harbouring R361K/V362I/L363M mutant to EC50 for antiviral activity wild type HIV1; assay type: functional, Human immunodeficiency virus 1
# [22] = Selectivity ratio of EC50 for antiviral activity against HIV1 harbouring A364V mutant to EC50 for antiviral activity wild type HIV1; assay type: functional, Human immunodeficiency virus 1
# [23] = tested on: Human immunodeficiency virus 1; assay: Antiviral activity against HIV1 infected in human assessed as reduction in Plasma viremia by measuring HIV1 RNA at 10 mg/kg after 10 days; assay type: functional; settings: time 10 day
# [24] = tested on: Human immunodeficiency virus 1; assay: Antiviral activity against HIV1 infected in human assessed as reduction in Plasma viremia by measuring HIV1 RNA at 40 mg/kg after 7 days; assay type: functional; settings: time 7 day
# [25] = tested on: Human immunodeficiency virus 1; assay: Antiviral activity against HIV1 infected in human assessed as reduction in Plasma viremia by measuring HIV1 RNA at 80 mg/kg after 7 days; assay type: functional; settings: time 7 day
# [26] = tested on: Human immunodeficiency virus 1; assay: Antiviral activity against HIV1 infected in human assessed as reduction in Plasma viremia by measuring HIV1 RNA at 140 mg/kg after 7 days; assay type: functional; settings: time 7 day
# [27] = tested on: Human immunodeficiency virus 1; assay: Antiviral activity against HIV1 infected in human assessed as reduction in Plasma viremia by measuring HIV1 RNA at 200 mg/kg after 10 days; assay type: functional; settings: time 10 day
# [28] = tested on: Human immunodeficiency virus 1; assay: Antiviral activity against wild type HIV 1 NL4-3; assay type: functional, organism-based; settings: Human immunodeficiency virus 1, NL4-3
# [29] = tested on: Human immunodeficiency virus 1; assay: Antiviral activity against wild type HIV 1 in presence of human serum albumin; assay type: functional, organism-based
SMILES,EC50 [1] [nM],EC50 [2] [nM],EC50 [3] [nM],EC50 [4] [nM],T1/2 [5] [h],T1/2 [6] [h],T1/2 [7] [h],T1/2 [10] [h],T1/2 [11] [min],EC50 [12] [nM],EC50 [13] [nM],EC50 [14] [nM],EC50 [15] [nM],Ratio EC50 [16],Ratio EC50 [17],Ratio EC50 [18],Ratio EC50 [19],Ratio EC50 [20],Ratio EC50 [21],Ratio EC50 [22],also measured
C=C(C)[C@@H]1CC[C@]2(NCCN3CCS(=O)(=O)CC3)CC[C@]3(C)[C@H](CC[C@@H]4[C@@]5(C)CC=C(C6=CC[C@@](CF)(C(=O)O)CC6)C(C)(C)[C@@H]5CC[C@]43C)[C@@H]12 [FIPRAVIRIMAT],2,3,3,7,6.02,7.65,5.25,3.78,< 1,3,26,3,274,1,0.7,1,2.3,8.7,1,91,T1/2 [8]: 4.48 h; T1/2 [9]: 7.23 h; Activity [23]: -0.4; Activity [24]: -1.2; Activity [25]: -1; Activity [26]: -1.5; Activity [27]: -2
C=C(C)[C@@H]1CC[C@]2(NCCN3CCS(=O)(=O)CC3)CC[C@]3(C)[C@H](CC[C@@H]4[C@@]5(C)CC=C(C6=CCC(C(=O)O)CC6)C(C)(C)[C@@H]5CC[C@]43C)[C@@H]12 (stereo partly specified),0.7,,2,,,,,,,,,,,,,,,,,,EC50 [28]: 0.6 nM; EC50 [29]: 9 nM
C=C(C)[C@@H]1CC[C@]2(NCCN3CCS(=O)(=O)CC3)CC[C@]3(C)[C@H](CC[C@@H]4[C@@]5(C)CC=C(C6=CC[C@@H](C(=O)O)CC6)C(C)(C)[C@@H]5CC[C@]43C)[C@@H]12,,15,3,19,,,,,,,,,,,,,,,,,EC50 [28]: 3 nM; EC50 [29]: 5 nM
C=C(C)[C@@H]1CC[C@]2(NCCN3CCS(=O)(=O)CC3)CC[C@]3(C)[C@H](CC[C@@H]4[C@@]5(C)CC=C(c6ccc(C(=O)O)cc6)C(C)(C)[C@@H]5CC[C@]43C)[C@@H]12 [BMS-955176],6,> 3000,6,704,0.85,0.8,0.767,0.583,< 1,5,> 3000,552,> 3000,>600,1.2,1.2,141,>600,110,>600,
